# Patent US12286424B2, “Small molecule inhibitors of galectin-3” (BRISTOL-MYERS SQUIBB COMPANY, priority 2020, dated 2025)
# Target: T1, hGalectin-3 (Homo sapiens, UniProt P17931)
# T1 construct: made in house
# Test: Gal-3 ELISA assay (hGalectin-3 neutralization binding to asialofetuin)
# Details: biotin-tagged hGalectin-3 15 nM, ASF-coated plate; read-out: hGal3 IC50
# T1 sequence (P17931 whole entry): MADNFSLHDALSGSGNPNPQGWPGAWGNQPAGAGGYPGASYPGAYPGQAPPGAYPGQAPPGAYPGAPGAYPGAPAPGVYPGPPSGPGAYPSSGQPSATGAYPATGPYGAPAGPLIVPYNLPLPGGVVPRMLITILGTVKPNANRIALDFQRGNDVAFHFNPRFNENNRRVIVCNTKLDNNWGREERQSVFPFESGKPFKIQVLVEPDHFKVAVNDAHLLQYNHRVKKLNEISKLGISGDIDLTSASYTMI
row,Structure (SMILES),IC50 [nM]
1,O=C(C[C@@H]1O[C@H](CO)[C@H](O)[C@H](n2cc(-c3cccc(F)c3)nn2)[C@H]1O)N1C[C@@H]2C[C@H]1CN2c1ccc2c(c1)OCO2 [Example 28],580
2,"O=C(Nc1ccc(O)cc1)N1C[C@@H]2C[C@H]1CN2C(=O)[C@@H]1O[C@H](CO)[C@H](O)[C@H](n2cc(-c3cccc(F)c3)nn2)[C@H]1O [Example 30, (1S, 4S)-5-((2R, 3R, 4S, 5R, 6R)-4-(4-(3-fluorophenyl)-1H-1,2,3-triazol-1-yl)-3,5-dihydroxy-6-(hydroxymethyl)tetrahydro-2H-pyran-2-carbonyl)-N-(4-hydroxyphenyl)-2,5-diazabicyclo[2.2.1]heptane-2-carboxamide]",500
3,"O=C([C@@H]1O[C@H](CO)[C@H](O)[C@H](n2cc(-c3cccc(F)c3)nn2)[C@H]1O)N1CCCN(c2ccc(O)cc2)CC1 [Example 33, ((2R, 3R, 4S, 5R, 6R)-4-(4-(3-fluorophenyl)-1H-1,2,3-triazol-1-yl)-3,5-dihydroxy-6-(hydroxymethyl)tetrahydro-2H-pyran-2-yl)(4-(4-hydroxyphenyl)-1,4-diazepan-1-yl)methanone]",480
4,"Cc1ccc(N2C[C@H]3CN(C(=O)[C@@H]4O[C@H](CO)[C@H](O)[C@H](n5cc(-c6cccc(F)c6)nn5)[C@H]4O)C[C@H]3C2)cc1 [Example 38, ((2R,3R,4S,5R,6R)-4-(4-(3-fluorophenyl)-1H-1,2,3-triazol-1-yl)-3,5-dihydroxy-6-(hydroxymethyl)tetrahydro-2H-pyran-2-yl)((3aR,6aS)-5-(p-tolyl)hexahydropyrrolo[3,4-c]pyrrol-2(1H)-yl)methanone]",400
5,"CS(=O)(=O)Nc1ccc(N2C[C@@H]3C[C@H]2CN3C(=O)[C@@H]2O[C@H](CO)[C@H](O)[C@H](n3cc(-c4cccc(F)c4)nn3)[C@H]2O)nc1 [Example 41, N-(6-((1S,4S)-5-((2R,3R,4S,5R,6R)-4-(4-(3-fluorophenyl)-1H-1,2,3-triazol-1-yl)-3,5-dihydroxy-6-(hydroxymethyl)tetrahydro-2H-pyran-2-carbonyl)-2,5-diazabicyclo[2.2.1]heptan-2-yl)pyridin-3-yl)methanesulfonamide]",720
6,CS(=O)(=O)Nc1ccc(N2C[C@@H]3C[C@H]2CN3C(=O)[C@@H]2O[C@H](CO)[C@H](O)[C@H](n3cc(-c4cccc(F)c4)nn3)[C@H]2O)cn1 [Example 42],420

# These reach a lower IC50. Values come first.
row,IC50 [nM],Structure (SMILES)
1,350,"COc1ccc(N2C[C@@H]3C[C@H]2CN3C(=O)C[C@@H]2O[C@H](CO)[C@H](O)[C@H](n3cc(-c4cccc(F)c4)nn3)[C@H]2O)cc1 [Example 27, 2-((2S,3R,4R,5R,6R)-4-(4-(3-fluorophenyl)-1H-1,2,3-triazol-1-yl)-3,5-dihydroxy-6-(hydroxymethyl)tetrahydro-2H-pyran-2-yl)-1-((1S,4S)-5-(4-methoxyphenyl)-2,5-diazabicyclo[2.2.1]heptan-2-yl)ethanone]"
2,300,"O=C([C@@H]1O[C@H](CO)[C@H](O)[C@H](n2cc(-c3cccc(F)c3)nn2)[C@H]1O)N1C[C@@H]2C[C@H]1CN2c1ccc2[nH]ccc2c1 [Example 26, ((1S,4S)-5-(1H-indol-5-yl)-2,5-diazabicyclo[2.2.1]heptan-2-yl)((2R,3R,4S,5R,6R)-4-(4-(3-fluorophenyl)-1H-1,2,3-triazol-1-yl)-3,5-dihydroxy-6-(hydroxymethyl)tetrahydro-2H-pyran-2-yl)methanone]"
3,250,"COc1ccc(N2C[C@@H]3C[C@H]2CN3C[C@@H]2O[C@H](CO)[C@H](O)[C@H](n3cc(-c4cccc(F)c4)nn3)[C@H]2O)cc1 [Example 29, (2R,3R,4R,5R,6S)-4-(4-(3-fluorophenyl)-1H-1,2,3-triazol-1-yl)-2-(hydroxymethyl)-6-(((1S,4S)-5-(4-methoxyphenyl)-2,5-diazabicyclo[2.2.1]heptan-2-yl)methyl)tetrahydro-2H-pyran-3,5-diol]"
4,180,O=C([C@@H]1O[C@H](CO)[C@H](O)[C@H](n2cc(-c3cccc(F)c3)nn2)[C@H]1O)N1C[C@H]2C[C@@H]1CN2c1ccc2c(c1)OCO2 [Example 32]
